Measured values: US20240150365A1 (Hotspot Therapeutics, Inc., priority 2022, published 2024)
pIC50: −log10 of the molar value.

Tests used:
MALT1 = molecular target: T1, MALT1 (Homo sapiens, UniProt Q9UDY8); test: MALT-1 Fluorogenic Peptide Cleavage Assay (MALT1 inhibition assay); assay type: biochemical; details: Avi-tagged FL MALT-1, Ac-LRSR-AMC peptide substrate, 30 min pre-incubation, 90 min reaction
T1 construct: Avi-tagged FL MALT-1 (Pharmaron, stored at −70° C.); Avi tag
T1 sequence (Q9UDY8 1-824): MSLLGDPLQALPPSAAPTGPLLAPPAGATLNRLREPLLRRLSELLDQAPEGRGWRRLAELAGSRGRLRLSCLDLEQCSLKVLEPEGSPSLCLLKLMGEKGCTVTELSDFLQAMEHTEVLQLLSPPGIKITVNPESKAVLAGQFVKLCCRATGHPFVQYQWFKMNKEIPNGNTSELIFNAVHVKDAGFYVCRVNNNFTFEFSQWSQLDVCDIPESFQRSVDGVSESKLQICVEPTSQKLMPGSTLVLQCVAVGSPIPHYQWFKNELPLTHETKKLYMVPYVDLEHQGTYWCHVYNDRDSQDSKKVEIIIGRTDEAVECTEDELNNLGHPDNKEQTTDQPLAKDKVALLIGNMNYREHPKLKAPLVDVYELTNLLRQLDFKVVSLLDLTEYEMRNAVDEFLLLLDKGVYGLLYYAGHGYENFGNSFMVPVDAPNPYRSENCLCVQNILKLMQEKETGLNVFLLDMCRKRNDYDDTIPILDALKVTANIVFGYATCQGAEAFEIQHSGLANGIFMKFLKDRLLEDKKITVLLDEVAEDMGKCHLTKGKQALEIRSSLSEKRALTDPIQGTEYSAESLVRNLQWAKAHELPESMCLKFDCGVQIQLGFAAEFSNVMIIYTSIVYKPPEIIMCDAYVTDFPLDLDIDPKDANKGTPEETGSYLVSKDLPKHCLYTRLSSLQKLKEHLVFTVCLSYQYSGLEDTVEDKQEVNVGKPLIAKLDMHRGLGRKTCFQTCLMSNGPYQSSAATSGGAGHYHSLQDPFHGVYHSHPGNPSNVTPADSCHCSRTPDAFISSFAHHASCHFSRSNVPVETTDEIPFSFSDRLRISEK
Protocol: Inhibition of MALT1 activity by the presence of small molecules was evaluated using MALT-1 Fluorogenic Peptide Cleavage Assay. The assay utilizes a quenched AMC-labelled peptide that contains the MALT-1 recognition sequence and cleavage site (LRSR). MALT-1 mediated cleavage of the peptide relieves the quenching and leads to an increase in fluorescence at excitation (342 nm) and emission (441 nm). The following reagents were obtained commercially and used to prepare standard reagent formulations as further described below: […] The standard reagent formulations used in this assay were prepared and stored as follows. A 1.1 M solution of sodium citrate (161.3 g, 500 mL) was prepared and stored at room temperature. A 10% (w/v) CHAPS solution (2.0 g, 20 mL) was prepared and stored at 4° C. A 500 mM HEPES solution having pH of 6.89 was prepared from 200 mL of a 1 M HEPES solution having a pH of 7.5 using concentrated hydrochloric acid and brought to a final volume of 400 mL with […]® H2O. The substrate, 10 mM Ac-LRSR-AMC Peptide, was prepared (10 mg, 1.370 mL DMSO) and stored at -20° C. Compounds were plated to provide a 2% DMSO final concentration using a ProxiPlate-384 Plus F Black 384-shallow well microplate. The assay-ready plates were equilibrated to room temperature. […] DMSO was added only when compound plates had not been DMSO-backfilled to 2%. MALT-1 was thawed and kept on ice. Peptide substrate was thawed on the bench under ambient conditions. A MALT-1 enzyme working stock was prepared from Avi-tagged FL MALT-1 (40 nM in a prepared reagent volume of 16.5 μL) and the reaction buffer (13.0 mL). MALT1 working stock (5 μL) was added to each well of the microplate. MALT-1 was pre-incubated with compounds for 30 minutes at room temperature. […] The plates were covered and incubated on the bench at room temperature for 90 minutes. Fluorescence intensity was determined using a CLARIOstar microplate reader (BMG LABTECH) using the optimised AMC mode. Before taking readings, a 70% gain was applied on the neutral control well. Compound data were normalised to % Inhibition and used to plot sigmoidal concentration response curves to yield various parameters including IC50. […] Compounds in which an IC50 was not measured are designated as “N/A”.

NF-kB = NF-kB reporter assay in Jurkat cells stimulated with aCD3/aCD28/PMA; assay type: cell-based; details: Homo sapiens, Jurkat, Jurkat cells, 1 hr compound incubation, aCD3/aCD28/PMA stimulation 4 hr, One-Glo readout; read-out: NF-kB Reporter Assay IC50
Protocol: Jurkat cells were maintained in complete RPMI 1640 media supplemented with 10% FBS. Prior to the assay, 120 nL of the serial diluted compound was added in each well of 384-well flat bottom white plate (Corning #3570) by using liquid handler Echo550. Jurkat cells were harvested by centrifugation at 120 g for 10 min and resuspended in fresh RPMI 1640 media without serum. 30 μL of cells (25,000 cells) were seeded in each well of 384-well plate containing compound. After 1 hr incubation at 37° C. in a 5% CO2 incubator, 10 μL of diluted aCD3/aCD28/PMA (final concentration at 5 μg/mL, 5 μg/mL and 0.03 μg/mL, respectively) in RPMI 1640 without serum were added to each well. After incubation at 37° C. in 5% CO2 for 4 hr, 30 μL of One-Glo reagent (Promega #E6120) was added into each well. The plate was left at room temperature for 5 min and the signal was measured on EnVision (PerkinElmer).
Compounds in which an IC50 was not measured are designated as “N/A”.

Compound	pIC50 (MALT1)	pIC50 (NF-kB)
CCc1ccc2cnn(C)c2c1NS(=O)(=O)c1ccc(-c2cc(C(F)(F)F)n[nH]2)nc1 [Example I-1]	> 6.40	> 6.40
CCc1ccc2cnn(C)c2c1NS(=O)(=O)c1ccc(-n2cc(C(F)(F)F)cn2)nc1 [Example I-2]	> 6.40	> 6.40
CCc1ccc2cnn(C)c2c1NS(=O)(=O)c1ccc(-n2cc(C(F)(F)F)c(C(=O)N(C)C)n2)nc1 [Example I-4]	6.00 to 6.40	
CCc1ccc2cnn(C)c2c1NS(=O)(=O)c1ccc(-n2cc(C(F)(F)F)c(C(=O)N3CC(O)C3)n2)nc1 [Example I-5]	> 6.40	
CCc1ccc2cnn(C)c2c1N(C)S(=O)(=O)c1ccc(-n2cc(C(F)(F)F)cn2)nc1 [Example I-6]	> 6.40	> 6.40
CCc1ccc2cnn(C)c2c1NS(=O)(=O)c1ccc(-n2cc(C(F)(F)F)cn2)cn1 [Example I-7, N-(6-Ethyl-1-Methyl-1H-Indazol-7-yl)-5-(4-(Trifluoromethyl)-1H-Pyrazol-1-yl)Pyridine-2-Sulfonamide]	5.60 to 6.00	5.60 to 6.00
CCc1ccc2cnn(C)c2c1NS(=O)(=O)c1cnc(-n2cc(C(F)(F)F)cn2)nc1 [Example I-8, N-(6-Ethyl-1-Methyl-1H-Indazol-7-yl)-2-(4-(Trifluoromethyl)-1H-Pyrazol-1-yl)Pyrimidine-5-Sulfonamide]	< 5.60	< 5.60
CCc1ccc2cnn(C)c2c1NS(=O)(=O)c1ccc(-n2cc(C(F)(F)F)cn2)nn1 [Example I-9, N-(6-Ethyl-1-Methyl-1H-Indazol-7-yl)-6-(4-(Trifluoromethyl)-1H-Pyrazol-1-yl)Pyridazine-3-Sulfonamide]	< 5.60	< 5.60
COc1ccc2cnn(C)c2c1NS(=O)(=O)c1ccc(-n2cc(C(F)(F)F)cn2)nc1 [Example I-10, N-(6-Methoxy-1-Methylindazol-7-yl)-6-[4-(Trifluoromethyl) Pyrazol-1-yl]pyridine-3-Sulfonamide]	> 6.40	> 6.40
COc1ccc2cnn(C)c2c1NS(=O)(=O)c1ccc(-n2cc(C3CC3)cn2)nc1 [Example I-11, 6-(4-Cyclopropyl-1H-Pyrazol-1-yl)-N-(6-Methoxy-1-Methyl-1H-Indazol-7-yl)Pyridine-3-Sulfonamide]	> 6.40	> 6.40
COc1ccc2cnn(C)c2c1NS(=O)(=O)c1ccc(-n2cc(Cl)cn2)nc1 [Example I-13, 6-(4-Chloro-1H-Pyrazol-1-yl)-N-(6-Methoxy-1-Methyl-1H-Indazol-7-yl)Pyridine-3-Sulfonamide]	> 6.40	> 6.40
COc1ccc2cnn(C)c2c1NS(=O)(=O)c1ccc(-n2cc(C)cn2)nc1 [Example I-14, N-(6-Methoxy-1-Methyl-1H-Indazol-7-yl)-6-(4-Methyl-1H-Pyrazol-1-yl)Pyridine-3-Sulfonamide]	> 6.40	> 6.40
COc1ccc2cnn(C)c2c1NS(=O)(=O)c1ccc(-n2cccn2)nc1 [Example I-15, N-(6-Methoxy-1-Methyl-1H-Indazol-7-yl)-6-(1H-Pyrazol-1-yl) Pyridine-3-Sulfonamide]	5.60 to 6.00	> 6.40
COc1ccc2cnn(C)c2c1NS(=O)(=O)c1ccc(-n2ccc(C(F)(F)F)n2)nc1 [Example I-16]	> 6.40	> 6.40
Cn1ncc2ccc(C3CC3)c(NS(=O)(=O)c3ccc(-n4cc(Cl)cn4)nc3)c21 [Example I-17]	> 6.40	> 6.40

Other lines, results leading:

pIC50 (MALT1)	pIC50 (NF-kB)	Compound
> 6.40	> 6.40	COc1ccc2cnn(C)c2c1NS(=O)(=O)c1ccc(-c2cc(C(F)(F)F)nn2C)nc1 [Example I-18, N-(6-Methoxy-1-Methylindazol-7-yl)-6-[2-Methyl-5-(Trifluoromethyl)Pyrazol-3-yl]pyridine-3-Sulfonamide]
< 5.60	> 6.40	COc1ccc2cnn(C)c2c1NS(=O)(=O)c1ccc(-c2ccn(C)n2)nc1 [Example I-19, N-(6-Methoxy-1-Methylindazol-7-yl)-6-(1-Methylpyrazol-3-yl)Pyridine-3-Sulfonamide]
5.60 to 6.00	6.00 to 6.40	COc1ccc2cnn(C)c2c1NS(=O)(=O)c1ccc(-c2cnn(C)c2)nc1 [Example I-20, N-(6-Methoxy-1-Methylindazol-7-yl)-6-(1-Methylpyrazol-4-yl)Pyridine-3-Sulfonamide]
< 5.60	> 6.40	COc1ccc2cnn(C)c2c1NS(=O)(=O)c1ccc(-c2cn(C)nn2)nc1 [Example I-21, N-(6-Methoxy-1-Methyl-1H-Indazol-7-yl)-6-(1-Methyl-1H-1,2,3-Triazol-4-yl)Pyridine-3-Sulfonamide]
> 6.40	> 6.40	COc1ccc2cnn(C)c2c1NS(=O)(=O)c1ccc(-c2cc(C(F)(F)F)n[nH]2)nc1 [Example I-22, N-(6-Methoxy-1-Methylindazol-7-yl)-6-[5-(Trifluoromethyl)-2H-Pyrazol-3-yl]pyridine-3-Sulfonamide]
6.00 to 6.40	> 6.40	Cn1ncc2cccc(NS(=O)(=O)c3ccc(-n4cc(C(F)(F)F)cn4)nc3)c21 [Example I-23, N-(1-Methyl-1H-Indazol-7-yl)-6-(4-(Trifluoromethyl)-1H-Pyrazol-1-yl)Pyridine-3-Sulfonamide]
5.60 to 6.00	> 6.40	Cc1n[nH]c2cccc(NS(=O)(=O)c3ccc(-n4cc(C(F)(F)F)cn4)nc3)c12 [Example I-24, N-(3-Methyl-1H-Indazol-4-yl)-6-(4-(Trifluoromethyl)-1H-Pyrazol-1-yl)Pyridine-3-Sulfonamide]
> 6.40		CCc1ccc2cnn(C)c2c1NS(=O)(=O)c1ccc(-c2ccc(C(=O)OC)c(Cl)c2)nc1 [Example I-45, Methyl 2-Chloro-4-(5-(N-(6-Ethyl-1-Methyl-1H-Indazol-7-yl)Sulfamoyl)Pyridin-2-yl)Benzoate]
> 6.40		CCc1ccc2cnn(C)c2c1NS(=O)(=O)c1ccc(-c2ccnc(C(F)(F)F)c2)nc1 [Example I-46, N-(6-Ethyl-1-Methyl-1H-Indazol-7-yl)-2′-(Trifluoromethyl)-[2,4′-Bipyridine]-5-Sulfonamide]
5.60 to 6.00		CCc1ccc2cnn(C)c2c1NS(=O)(=O)c1ccc(-c2ccncc2)nc1 [Example I-47, N-(6-Ethyl-1-Methyl-1H-Indazol-7-yl)-[2,4′-Bipyridine]-5-Sulfonamide]
